Data published in patent publication US4264492A, “Enkephalin-like compounds in bovine adrenal medulla” (Hoffmann-La Roche Inc., priority 1979, dated 1981).
Several values for one entry are separate records, joined by “and”; a condition that tells them apart may be missing. Equal values may be shown once.

How the values were obtained:
[1] = test system: C-terminal directed Leu-enkephalin antibody; assay: Radioimmunoassay, C-terminal directed antibody; format: binding; settings: fractions from RP-18; 1.3 g wet weight of chromaffin granules isolated from 30 g of adrenal medulla
Experimental: (§1) Bovine adrenal glands were obtained from a local slaughterhouse and stored on ice until used (2 hrs). The medullas were dissected out and chromaffin granules prepared by the procedure of Smith and Winkler [Biochem. J., 103, & 80 (1967)]. The isolated chromaffin granules or whole adrenal medullas were homogenized (10:1 V/W) in 1 M acetic acid, 20 mM HCl containing 1μg/ml PMSF and pepstatin. The procedures for extraction, Sephadex column elution and trypsin digestion have been described [Lewis, R. V. et al., Proc. Nat'l. Acad. Sci., U.S.A. 75, & 021 (1978)]. The radioreceptor assay employed neuroblastoma x glioma hybrid cells [Gerber, L. D. et al., Brain Res. 1515, 117 (1978)] with ^3 H-Leuenkephalin as the competing ligand. Radioimmunoassays were performed using a C-terminal directed Leu-enkephalin antibody and a N-terminal directed Met-enkephalin antibody. The characteristics of these antibodies have been described previously [Lewis. R. V., et al. Biochem. Biophys. Res. Commun. 89, 822 (1979)] .
(§2) In order to determine whether fractions 6,7, and 16 were indeed separate entities differing chromatographically from the enkephalins, these fractions were lyophilized, redissolved and rechromatographed. Each opioid peptide eluted at its original position. […]

[2] = test system: rats; settings: intracerebraventricular or intravenous administration to rats; cited from earlier work
[3] = test system: mice; settings: intracerebraventricular or intravenous administration to mice; cited from earlier work
[4] = test system: N-terminal directed Met-enkephalin antibody; assay: Radioimmunoassay, N-terminal directed antibody; format: binding; settings: fractions from RP-18; 1.3 g wet weight of chromaffin granules isolated from 30 g of adrenal medulla
Experimental: as §1, §2

[5] = test system: mice; assay: Analgesic assay, tail flick response after intracerebral ventrical injection; format: in vivo; settings: individual mouse

Row | Substance | Radioimmunoassay C-Terminal [1] | analgesia [2] | analgesia [3] | Radioimmunoassay N-Terminal [4] | Response ([5]; Dose 4.5nm, Volume 5nl) | Tail flick response, Post Injection Time 20 ([5]; Dose 4.5nm, Volume 5nl) | Response ([5]; Dose 120 nm, Volume 10nl.) | Tail flick response, Post Injection Time 10 ([5]; Dose 120 nm, Volume 10nl.) | Tail flick response, Post Injection Time 2 min. ([5]; Dose 120 nm, Volume 10nl.)
1 | Leu-enkephalin [Leu-enk (std)] | 1.0 nmoles/fraction | weak and short lined anagesia | weak and short lined anagesia | 0.4 nmoles/fraction |  |  |  |  | 
2 | Beta-endorphin (YGGFMTSEKSQTPLVTLFKNAIIKNAYKKGE; Beta-endorphin; UniProt P01189 237-267, looked up) |  |  |  |  | Pos. and Neg. | 8 |  |  | 
3 | methionine enkephalin [Met Enk] | 0.03 nmoles/fraction | weak and short lined anagesia | weak and short lined anagesia | 1.0 nmoles/fraction |  |  | Neg. | 6.3 and 5.9 and 5.0 | 4.0 and 4.7
